Test results taken from the supplement of paper PMC10307832.

Legend:
Assay in all cases: relative viability (nuclei count vs DMSO), 5 days (fraction); higher = more cells survive
[1] = compound: CC[C@H](CO)Nc1nc(NCc2ccccc2)c2ncn(C(C)C)c2n1 [Seliciclib] + Cc1cc(Nc2cc(N3CCN(C)CC3)nc(Sc3ccc(NC(=O)C4CC4)cc3)n2)n[nH]1 [Tozasertib] (partner 0.1 µM)
Procedure, shortened: (§1)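 Each reported value is a median over duplicate plates. It expresses relative viability: treated-well nuclei count divided by vehicle-well nuclei count. Lung cancer cell lines in 1536-well plates were dosed by pin tool a day after seeding, alone with one drug or with a fixed anchor-drug dose plus five library-drug doses (not always all listed) in √10 steps, and nuclei were counted after 5 days.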

[2] = compound: CC[C@H](CO)Nc1nc(NCc2ccccc2)c2ncn(C(C)C)c2n1 [Seliciclib] + NC(=O)Nc1cc(-c2cccc(F)c2)sc1C(=O)N[C@H]1CCCNC1 [AZD7762] (partner 0.2 µM)
Procedure, shortened: as §1

[3] = compound: CC[C@H](CO)Nc1nc(NCc2ccccc2)c2ncn(C(C)C)c2n1 [Seliciclib] + CC(C)C[C@H](NC(=O)[C@H](Cc1ccccc1)NC(=O)c1cnccn1)B(O)O [Bortezomib] (partner 0.002 µM)
Procedure, shortened: as §1

[4] = compound: CC[C@H](CO)Nc1nc(NCc2ccccc2)c2ncn(C(C)C)c2n1 [Seliciclib] + Nc1ncn([C@H]2C[C@H](O)[C@@H](CO)O2)c(=O)n1 [Decitabine] (partner 2 µM)
Procedure, shortened: as §1

Cell Line | relative viability ([1]; first compound 0.08 µM) | relative viability ([1]; first compound 0.253 µM) | relative viability ([1]; first compound 0.8 µM) | relative viability ([1]; first compound 2.53 µM) | relative viability ([1]; first compound 8 µM) | relative viability ([2]; first compound 0.08 µM) | relative viability ([2]; first compound 0.253 µM) | relative viability ([2]; first compound 0.8 µM) | relative viability ([2]; first compound 2.53 µM) | relative viability ([2]; first compound 8 µM) | relative viability ([3]; first compound 0.08 µM) | relative viability ([3]; first compound 0.253 µM) | relative viability ([3]; first compound 0.8 µM) | relative viability ([3]; first compound 2.53 µM) | relative viability ([3]; first compound 8 µM) | relative viability ([4]; first compound 0.08 µM) | relative viability ([4]; first compound 0.253 µM) | relative viability ([4]; first compound 0.8 µM) | relative viability ([4]; first compound 2.53 µM) | relative viability ([4]; first compound 8 µM)
ChaGo-K-1 | 0.241 | 0.225 | 0.213 | 0.222 | 0.238 | 0.875 | 0.511 | 0.895 | 0.918 | 0.892 | 0.914 | 0.517 | 0.947 | 0.83 | 0.454 | 0.519 | 0.472 | 0.509 | 0.516 | 0.475
EMC-BAC-2 | 0.257 | 0.242 | 0.318 | 0.274 | 0.257 | 1.2 | 1.21 | 1.25 | 0.794 | 0.946 | 1.05 | 0.91 | 1.11 | 0.836 | 1.07 | 0.918 | 1.01 | 1 | 0.753 | 0.856
NCI-H23 | 0.424 | 0.368 | 0.379 | 0.426 | 0.322 | 0.25 | 0.292 | 0.424 | 0.258 | 0.468 | 0.84 | 0.776 | 1.1 | 0.496 | 0.895 | 0.278 | 0.293 | 0.316 | 0.288 | 0.268
RERF-LC-KJ | 0.455 | 0.537 | 0.441 | 0.493 | 0.457 | 0.861 | 0.894 | 0.992 | 0.837 | 0.789 | 1.04 | 1.02 | 1.09 | 1.14 | 1.07 | 0.711 | 0.671 | 0.737 | 0.637 | 0.65
LC-2-ad | 0.55 | 0.479 | 0.429 | 0.426 | 0.438 | 0.839 | 0.882 | 0.791 | 0.741 | 0.853 | 1.02 | 0.514 | 0.986 | 0.958 | 0.816 | 0.752 | 0.95 | 0.717 | 0.812 | 0.721
HCC-15 | 0.403 | 0.502 | 0.372 | 0.443 | 0.331 | 1.09 | 1.37 | 1.22 | 1.19 | 1.02 | 1.05 | 1.1 | 0.898 | 0.966 | 0.826 | 0.685 | 0.814 | 0.629 | 0.457 | 0.527
NCI-H2405 | 0.753 | 0.797 | 0.762 | 0.602 | 0.601 | 0.8 | 0.757 | 0.831 | 0.584 | 0.648 | 0.984 | 0.956 | 0.946 | 0.922 | 0.905 | 0.758 | 0.68 | 0.742 | 0.63 | 0.716
LXF-289 | 0.189 | 0.192 | 0.203 | 0.18 | 0.158 | 1.09 | 1.33 | 1.06 | 1.16 | 0.993 | 0.981 | 1.11 | 0.904 | 0.971 | 0.838 | 0.348 | 0.299 | 0.403 | 0.39 | 0.39
NCI-H1755 | 0.617 | 0.605 | 0.62 | 0.502 | 0.534 | 0.447 | 0.408 | 0.481 | 0.488 | 0.617 | 0.928 | 0.961 | 0.896 | 0.973 | 0.913 | 0.71 | 0.644 | 0.719 | 0.759 | 0.721
NCI-H1437 | 0.425 | 0.431 | 0.405 | 0.4 | 0.352 | 1.06 | 1.19 | 1.17 | 0.999 | 1.08 | 0.436 | 0.524 | 0.47 | 0.422 | 0.39 | 0.557 | 0.563 | 0.566 | 0.477 | 0.56
NCI-H2085 | 0.807 | 0.96 | 0.737 | 0.619 | 0.664 | 0.948 | 0.962 | 0.998 | 1.03 | 0.868 | 0.759 | 1.09 | 1.1 | 1.03 | 0.841 | 0.518 | 0.501 | 0.563 | 0.49 | 0.483
H3255 | 0.588 | 0.645 | 0.585 | 0.507 | 0.604 | 0.811 | 0.848 | 0.951 | 0.839 | 0.823 | 0.833 | 0.828 | 0.753 | 0.605 | 0.625 | 0.594 | 0.61 | 0.684 | 0.571 | 0.479
NCI-H650 | 0.693 | 0.782 | 0.704 | 0.464 | 0.584 | 1.15 | 0.863 | 1.26 | 0.947 | 1.07 | 0.764 | 0.813 | 1.15 |  | 0.682 | 0.333 | 0.299 | 0.306 | 0.295 | 0.332
LCLC-103H | 0.443 | 0.583 | 0.532 | 0.434 | 0.399 | 0.793 | 0.676 | 0.65 | 0.696 | 0.74 | 0.94 | 1.03 | 0.92 | 0.939 | 1.01 | 0.781 | 0.727 | 0.755 | 0.735 | 0.644
LOU-NH91 | 0.638 | 0.686 | 0.583 | 0.62 | 0.515 |  | 0.715 | 0.794 | 0.702 | 0.569 | 0.5 | 0.519 | 0.518 | 0.408 | 0.399 |  | 0.795 | 0.784 | 0.785 | 0.693
NCI-H3122 | 0.428 | 0.347 | 0.393 | 0.378 | 0.329 | 0.935 | 0.939 | 0.915 | 0.959 | 0.897 | 1.03 | 1.04 | 0.995 | 0.973 | 0.967 | 0.399 | 0.234 | 0.479 | 0.472 | 0.294
